According to patent publication EP4417602A1, “SUBSTITUTED PYRAZOLE CARBOXAMIDES, SALTS THEREOF AND THEIR USE AS HERBICIDALLY ACTIVE SUBSTANCES” (Bayer AG, priority 2023, dated 2024):

Legend:
[1] = tested on: ECHCG; experiment: A. Herbicidal pre-emergence action on harmful plants (Tables A); format: in vivo, Echinochloa crus-galli; details: visual grading after ca. 3 weeks vs untreated controls, 100% = plants have died off, 0% = as control plants
Excerpt: (§1) Seeds of mono- and dicotyledonous weed plants were sown in plastic pots (double sowings with one species of mono- and one species of dicotyledonous weed plants per pot), in sandy loam, and covered with soil. The compounds according to the invention, formulated in the form of wettable powders (WP) or as emulsifiable concentrates (EC), were applied to the surface of the covering soil as aqueous suspension or emulsion, with the addition of 0.5% of an additive, at an application rate of 6001 of water per hectare (converted). Following treatment, the pots were placed in a greenhouse and kept under optimum growth conditions for the test plants. The visual grading of the damage to the test plants was carried out after ca. 3 weeks in comparison to untreated controls (herbicidal effect in percent (%): 100% effect = plants have died off, 0% effect = as control plants). Tables A1 to A12, below, show the effects of selected compounds of the general formula (I) according to table 1 on various harmful plants and an application rate corresponding to 1280 g/ha or below obtained by the experimental procedure mentioned above. Table A1: pre-emergence activity at 1280g/ha against ABUTH in %

[2] = tested on: LOLRI; experiment: as above; format: in vivo, Lolium rigidum; details: visual grading after ca. 3 weeks vs untreated controls, 100% = plants have died off, 0% = as control plants
Excerpt: as §1

[3] = tested on: SETVI; experiment: as above; format: in vivo, Setaria viridis; details: visual grading after ca. 3 weeks vs untreated controls, 100% = plants have died off, 0% = as control plants
Excerpt: as §1

[4] = tested on: POAAN; experiment: as above; format: in vivo, Poa annua
Excerpt: as §1

[5] = tested on: ALOMY; experiment: as above; format: in vivo, Alopecurus myosuroides
Excerpt: as §1

[6] = tested on: VERPE; experiment: B. Herbicidal post-emergence action on harmful plants (Tables B); format: in vivo, Veronica persica; details: application rate 1280 g/ha; Table B11a
Experimental: (§2) Seeds of mono- and dicotyledonous weed plants were placed in plastic pots in sandy loam soil (doubly sown with in each case one species of mono- or dicotyledonous weed plants per pot), covered with soil and cultivated in a greenhouse under controlled growth conditions. 2 to 3 weeks after sowing, the test plants were treated at the one-leaf stage. The compounds of the invention, formulated in the form of wettable powders (WP) or as emulsion concentrates (EC), were applied onto the green parts of the plants as aqueous suspension or emulsion with addition of 0.5% additive at a water application rate of 600 liters per hectare (converted). After the test plants had been kept in the greenhouse under optimum growth conditions for about 3 weeks, the activity of the preparations was rated visually in comparison to untreated controls. For example, 100% activity = the plants have died, 0% activity = like control plants. Tables B1 to B12, below, show the effects of selected compounds of the general formula (I) according to table 1 on various harmful plants and an application rate corresponding to 1280 g/ha or below obtained by the experimental procedure mentioned above. Table B1a: post-emergence activity at 1280g/ha against ABUTH in %

[7] = tested on: ECHCG; experiment: as above; format: in vivo, Echinochloa crus-galli; details: application rate 1280 g/ha; Table B2a
Experimental: as §2

[8] = tested on: POAAN; experiment: as above; format: in vivo, Poa annua
Experimental: as §2

[9] = tested on: STEME; experiment: A. Herbicidal pre-emergence action on harmful plants (Tables A); format: in vivo, Stellaria media; details: visual grading after ca. 3 weeks vs untreated controls, 100% = plants have died off, 0% = as control plants
Excerpt: as §1

[10] = tested on: DIGSA; experiment: as above; format: in vivo, Digitaria sanguinalis
Excerpt: as §1

[11] = tested on: MATIN; experiment: as above; format: in vivo, Matricaria inodora
Excerpt: as §1

[12] = tested on: AMARE; experiment: as above; format: in vivo, Amaranthus retroflexus; details: application rate 1280 g/ha; visual grading after ca. 3 weeks vs untreated controls; 100% = plants have died off, 0% = as control plants
Excerpt: as §1

[13] = application rate 320 g/ha, Table A7b
[14] = application rate 1280 g/ha, visual grading after ca. 3 weeks vs untreated controls, 100% = plants have died off, 0% = as control plants
[15] = application rate 1280 g/ha, Table A9a
[16] = application rate 1280 g/ha, Table B7a
[17] = application rate 320 g/ha, Table A12b
[18] = application rate 1280 g/ha, Table A12a
[19] = application rate 320 g/ha, Table A9b
[20] = application rate 80 g/ha, Table A7c

Structure (SMILES) | pre-emergence activity against ECHCG ([1]; application rate 320 g/ha) [%] | pre-emergence activity against ECHCG ([1]; application rate 1280 g/ha) [%] | pre-emergence activity against LOLRI ([2]; application rate 320 g/ha) [%] | pre-emergence activity against LOLRI ([2]; application rate 1280 g/ha) [%] | pre-emergence activity against SETVI ([3]; application rate 1280 g/ha) [%] | pre-emergence activity against POAAN [4, 13] [%] | pre-emergence activity against POAAN [4, 14] [%] | pre-emergence activity against ALOMY [5, 15] [%] | post-emergence activity against POAAN [8, 16] [%] | pre-emergence activity against SETVI ([3]; application rate 320 g/ha) [%] | pre-emergence activity against STEME ([9]; application rate 1280 g/ha) [%] | pre-emergence activity against DIGSA [10, 17] [%] | pre-emergence activity against DIGSA [10, 18] [%] | pre-emergence activity against MATIN [11, 14] [%] | pre-emergence activity against AMARE [12] [%] | pre-emergence activity against POAAN [4, 20] [%] | other results
COCc1nn(C)cc1C(=O)N1CCCC1Cc1ccccc1OC (racemic) [Example I-014] | 90 | 100 | 90 | 100 | 90 | 100 | 100 | 90 |  |  |  |  |  |  |  |  | post-emergence activity against VERPE [6]: 90%
COCc1nn(C)cc1C(=O)N1CCCC1Cc1ccc(Cl)cc1Cl (racemic) [Example I-016] | 90 | 100 |  |  | 90 | 100 | 100 |  | 90 |  |  |  |  |  |  |  | post-emergence activity against ECHCG [7]: 90%
CCn1cc(C(=O)N2CCCC2Cc2ccccc2F)c(COC)n1 (racemic) [Example I-027] | 90 | 90 |  | 90 | 100 |  |  | 90 |  | 100 | 90 | 90 | 90 |  |  |  | 
COCc1c(C(=O)N2CCCC2Cc2ccc(F)cc2F)cnn1C (racemic) [Example I-158] |  | 100 |  | 90 | 90 | 100 | 100 | 100 | 100 |  | 90 |  | 100 | 90 |  |  | pre-emergence activity against ALOMY [5, 19]: 100%; post-emergence activity against ECHCG [7]: 90%
COCc1nn(C)c(Cl)c1C(=O)N1CCCC1Cc1ccccc1F (single isomer, unassigned) [Example I-058] | 90 | 100 |  | 90 | 100 |  | 100 |  | 90 | 90 | 90 | 90 | 100 |  | 100 |  | pre-emergence activity against MATIN ([11]; pre-emergence, 1280 g/ha, 504 h): 90%
COCc1c(C(=O)N2CCCC2Cc2c(F)cccc2F)cnn1C (single isomer, unassigned) [Example I-126] | 90 | 90 | 90 | 100 | 100 | 90 | 100 | 90 | 90 | 90 | 90 | 100 | 100 | 90 |  | 90 | pre-emergence activity against ECHCG ([1]; application rate 80 g/ha): 90%; pre-emergence activity against SETVI ([3]; application rate 80 g/ha): 90%; pre-emergence activity against STEME ([9]; application rate 320 g/ha): 90%; pre-emergence activity against ALOMY [5, 19]: 90%; pre-emergence activity against DIGSA ([10]; application rate 80 g/ha, Table A12c): 90%; post-emergence activity against POAAN ([8]; application rate 80 g/ha, Table B7c): 90%; post-emergence activity against POAAN ([8]; application rate 320 g/ha, Table B7b): 90%
COCc1c(C(=O)N2CCCC2Cc2ccccc2C)cnn1C (single isomer, unassigned) [Example I-139] |  | 100 |  | 90 | 100 | 100 | 100 |  |  |  |  | 90 | 100 |  | 90 | 100 | 
CCOCc1c(C(=O)N2CCCC2Cc2ccccc2F)cnn1C (single isomer, unassigned) [Example I-142] | 90 | 100 | 90 | 100 | 100 | 100 | 100 | 90 | 90 | 90 | 90 | 90 | 100 | 90 | 90 | 90 | pre-emergence activity against ECHCG ([1]; application rate 80 g/ha): 90%; pre-emergence activity against STEME ([9]; application rate 320 g/ha): 90%
COCc1c(C(=O)N2CCCC2Cc2cc(F)ccc2F)cnn1C (single isomer, unassigned) [Example I-188] | 90 | 100 |  | 100 | 100 | 100 | 100 | 90 | 90 | 100 | 90 | 90 | 100 | 90 |  | 90 | pre-emergence activity against SETVI ([3]; application rate 80 g/ha): 90%
